Assay results published in patent US5968946A, “Heterocyclic derivatives useful in treating central nervous system disorders” (Ortho-McNeil Pharmaceutical, Inc., priority 1998, dated 1999).
Read-outs that look alike come from different tables or passages of the source.

Tests used:
[1] = tested on: anxiety in the adult male rat; experiment: Suppression of anxiety in the adult male rat (Vogel anticonflict test); type: in vivo; details: read-out: Anticonflict MED
Method: The anxiolytic activity of selected compounds of the invention was assessed by determining their ability to encourage behavior that had been suppressed by punishment (Vogel, J. R. et al. Psychopharmacology 1971, 21, 1). Male rats were deprived of water for 48 hours and were deprived of food for 24 hours prior to testing. After the first 24 hours of water deprivation, they were placed in the conflict chamber for a training period; wherein, they were allowed 200 unpunished licks from a bottle containing tap water. The experiment was run the next day. At the expected time of peak activity, the animals were placed in the chamber and allowed access to tap water. […] Their first lick initiates a 3-min test session. Subsequently,every 20th lick was punished by a 0.2-s shock delivered via the stainless-steel drinking-tube. Vehicle-treated control animals generally were willing to accept a median number of 3 to 8 shocks per test session. […] The Wilcoxon rank-sum test (Mann-WhitneyU-test) was used to test for an increase (p<0.05, 1-tailed) in the median number of shocks in drug-treated groups, compared to a concurrently run vehicle-treated group. The biological assay is considered to be valid if the effects of a known anxiolytic (positive control) are detected, within the same experiment. A compound was considered active if there is a significant difference in the median number of shocks tolerated between the drug-treated group and the control group. The MED was defined as the minimum dose of the drug-treatment as analyzed using the Wilcoxon rank-sum test (SAS; Statistical Analysis System, version 5.16). If the MED value is greater than 10, an active dose of the compound being tested had not been determined.

[2] = tested on: metrazol-induced convulsions; experiment: Suppression of metrazol-induced convulsions (antimetrazol); type: in vivo, mouse (male CD1); details: Mus musculus, 0.5 h; IP; clonic convulsions, 30 min observation
Method: Selected compounds of the invention were tested for their ability to reduce metrazol-induced convulsions in mice (Swinyard, E. A. J. Am. Pharm Assoc. 1949, 38, 201). Male CD1 mice, were fasted at least 16 hours, were divided into equal groups and test compounds or vehicle were administered parenterally. Water was not withheld except during the period of observations. At the time of suspected peak activity, anti-pentylenetetrazol (anti-metrazol) activity was evaluated by the subcutaneous administration of the CD90 dose of metrazol (the dose of metrazol was determined from the dose-response curve producing clonic convulsions in 90% of animals that received the corresponding vehicle for this experiment). Metrazol was dissolved in 0.9% sodium chloride solution, and its dose volume was 10 ml/kg. Animals were housed individually for observation of clonic convulsions, tonic convulsions and death for a period of 30 min. Test compounds that blocked the clonic seizure component of the convulsion in at least 50% of the animals were considered active. The biological assay was considered to be valid if the effects of a known anticonvulsant (positive control) were detected, within the same experiment. Activity was reported as percent reduction of clonic convulsions from the vehicle group. The ED50 values of active compounds were calculated by the method of probits (Finney, D. J. 1971. Probit Analysis. London: Cambridge University Press) and are listed in Tables 1.

motor coordination = experiment: Horizontal screen test for motor coordination; type: in vivo, mouse (male CD1); details: Mus musculus, CD1 mice
[3] = tested on: metrazol-induced convulsions; experiment: Suppression of metrazol-induced convulsions (antimetrazol); type: in vivo, mouse (male CD1); details: Mus musculus, 0.5 h; PO; clonic convulsions, 30 min observation
[4] = biological target: benzodiazepine site of the GABA-A receptor; experiment: Benzodiazepine receptor binding assay (inhibition of 3H-flunitrazepam binding); details: read-out: 3H-Flunitrazepam IC50; ca. 3 nM 3H-flunitrazepam, 10-20 min at 25° C.

SMILES | minimal effective dose ([1]; IP) | minimal effective dose ([1]; PO) | ED50 [2] | ED50 (motor coordination; IP) | ED50 [3] | IC50 [4] | ED50 (motor coordination; PO)
O=C1CCn2c(nc3ncccc32)C1C(=O)Nc1ccccc1F (stereo not shown) [CP #5, 6,7-dihydro-8-keto-N-(2-fluorophenyl)dipyrido[1,2-a:2',3'-d]imidazole-9-carboxamide] | 10 mg/kg | > 30 mg/kg | 1 mg/kg | 3 mg/kg | 10 mg/kg | 3.5 nM | –
O=C1CCN2C(=C1C(=O)Nc1ccncc1)Nc1cccnc12 [compound 3] | > 10 mg/kg | > 30 mg/kg | > 10 mg/kg | > 10 mg/kg | > 30 mg/kg | – | –
CN1C2=C(C(=O)Nc3ccccc3F)C(=O)CCN2c2ncccc21 [compound 12] | – | > 10 mg/kg | – | – | – | > 312 nM | –
O=C1CCN2C(=C1C(=O)Nc1ccccc1F)Nc1cccnc12 [compound 1] | > 10 mg/kg | > 30 mg/kg | 10 mg/kg | 10 mg/kg | > 30 mg/kg | – | –
O=C1CCN2C(=C1C(=O)Nc1c(F)cccc1F)Nc1cnccc12 [compound 10] | > 10 mg/kg | ~3 mg/kg | > 10 mg/kg | – | > 30 mg/kg | 17.7 nM | –
O=C1CCn2c(nc3ncccc32)C1C(=O)Nc1ccccc1 (stereo not shown) [CP #6, 6,7-dihydro-8-keto-N-phenyldipyrido[1,2-a:2',3'-d]imidazole-9-carboxamide] | > 10 mg/kg | 30 mg/kg | 3 mg/kg | 3 mg/kg | < 30 mg/kg | 8.3 nM | –
O=C1CCn2c(nc3ncccc32)C1C(=O)Nc1c(F)cccc1F (stereo not shown) [CP #9, 6,7-dihydro-8-keto-N-(2,6-difluorophenyl)dipyrido[1,2-a:2',3'-d]imidazole-9-carboxamide] | > 10 mg/kg | > 10 mg/kg | ~30 mg/kg | ~10 mg/kg | ~30 mg/kg | 30.1 nM | –
O=C1CCN2C(=C1C(=O)Nc1c(F)cc(F)cc1F)Nc1cccnc12 [CP #4] | > 10 mg/kg | > 30 mg/kg | ~10 mg/kg | ~10 mg/kg | > 30 mg/kg | 1960 nM | –
COCCN1C2=C(C(=O)Nc3ccccc3F)C(=O)CCN2c2ncccc21 [compound 11] | – | > 10 mg/kg | – | – | – | 285 nM | –
O=C1CCn2c(nc3ncccc32)C1C(=O)Nc1c(F)cc(F)cc1F (stereo not shown) [CP #8, 6,7-dihydro-8-keto-N-(2,4,6-trifluorophenyl)dipyrido[1,2-a:2',3'-d]imidazole-9-carboxamide] | > 10 mg/kg | > 30 mg/kg | 10 mg/kg | > 30 mg/kg | > 30 mg/kg | 220 nM | –
O=C1CCn2c(nc3ncccc32)C1C(=O)Nc1ccncc1 (stereo not shown) [CP #7, 6,7-dihydro-8-keto-N-(4-pyridyl)dipyrido[1,2-a:2',3'-d]imidazole-9-carboxamide] | 30 mg/kg | 10 mg/kg | > 30 mg/kg | – | > 10 mg/kg | 619 nM | > 10 mg/kg
O=C1CCn2c(nc3cccnc32)C1C(=O)Nc1ccccc1 (stereo not shown) [CP #2, 8,9-Dihydro-7-keto-N-phenyldipyrido [1,2-a:3',2'-d] imidazole-6-carboxamide] | > 10 mg/kg | > 30 mg/kg | > 10 mg/kg | > 10 mg/kg | > 30 mg/kg | > 4350 nM | –
